According to ChEMBL document CHEMBL1201862, “PubChem BioAssay data set” (2004):
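Dose response: 5 concentrations. Exposure: 48 h. Format: 96-well plates. Endpoint: linear interpolation; highest concentration if not reached. Abbreviation: GI50, concentration required for 50% inhibition of growth.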 Activity calls are given as the source filed them. Rule as the data show it: active = GI50 up to about 1.1 µM and inactive = higher.

Legend:
Assay in all cases: inhibition of tumour cell growth, NCI panel, 48 h
CCRF-CEM = test system: CCRF-CEM
HCC 2998 = test system: HCC 2998
KM12 = test system: KM12
M14 = test system: M14
MOLT-4 = test system: MOLT-4
NCI-H522 = test system: NCI-H522
NCI/ADR-RES = test system: NCI/ADR-RES
OVCAR-5 = test system: OVCAR-5
RPMI-8226 = test system: RPMI-8226
RXF 393 = test system: RXF 393
SF-268 = test system: SF-268
SF-539 = test system: SF-539
SK-MEL-28 = test system: SK-MEL-28
SK-OV-3 = test system: SK-OV-3
SN12C = test system: SN12C
SNB-75 = test system: SNB-75
TK-10 = test system: TK-10
U-251 = test system: U-251
UACC-257 = test system: UACC-257
UACC-62 = test system: UACC-62

Measured: GI50

Cc1cccc(C)c1NC(=O)Nc1ccc(S(N)(=O)=O)cc1
inactive: CCRF-CEM > 100 µM | HCC 2998 > 100 µM | KM12 > 100 µM | M14 > 100 µM | MOLT-4 > 100 µM | NCI-H522 > 100 µM | NCI/ADR-RES > 100 µM | OVCAR-5 > 100 µM | RPMI-8226 > 100 µM | RXF 393 > 100 µM | SF-268 > 100 µM | SF-539 > 100 µM | SK-MEL-28 > 100 µM | SK-OV-3 > 100 µM | SN12C > 100 µM | SNB-75 > 100 µM | TK-10 > 100 µM | U-251 > 100 µM | UACC-257 > 100 µM | UACC-62 > 100 µM

COc1ccc(/C=C2\C[C@H]3[C@@H]4CCC5=C/C(=N/O)CC[C@]5(C)[C@H]4CC[C@]3(C)\C2=N\O)cc1OC
inactive: CCRF-CEM 6.76 µM | HCC 2998 10.7 µM | KM12 8.04 µM | M14 40.2 µM | MOLT-4 5.79 µM | NCI-H522 23.1 µM | NCI/ADR-RES 26.4 µM | OVCAR-5 41 µM | RPMI-8226 4.49 µM | RXF 393 28.4 µM | SF-268 51.6 µM | SF-539 16.3 µM | SK-MEL-28 88.5 µM | SK-OV-3 39.3 µM | SN12C 12.7 µM | SNB-75 > 100 µM | UACC-257 6.07 µM | UACC-62 22.2 µM

CCOC(=O)C1=NN(c2ccc(Cl)cc2)C2=CC(C)=NN(C)C(=S)N21
inactive: CCRF-CEM > 100 µM | HCC 2998 > 100 µM | KM12 > 100 µM | M14 59.7 µM | MOLT-4 > 100 µM | NCI-H522 20.7 µM | NCI/ADR-RES 65 µM | OVCAR-5 > 100 µM | RPMI-8226 > 100 µM | RXF 393 25.4 µM | SF-268 45.2 µM | SF-539 22.6 µM | SK-MEL-28 > 100 µM | SK-OV-3 29.9 µM | SN12C 51.5 µM | SNB-75 26.8 µM | TK-10 22 µM | U-251 25.9 µM | UACC-257 > 100 µM | UACC-62 40.6 µM

CCOC(=O)C1(C(F)(F)F)N=C(CC)OC(N2CCOCC2)=N1 (configuration not stated)
inactive: CCRF-CEM > 100 µM | HCC 2998 > 100 µM | KM12 > 100 µM | M14 > 100 µM | MOLT-4 > 100 µM | NCI-H522 > 100 µM | NCI/ADR-RES > 100 µM | OVCAR-5 > 100 µM | RPMI-8226 > 100 µM | RXF 393 > 100 µM | SF-268 > 100 µM | SF-539 > 100 µM | SK-MEL-28 > 100 µM | SK-OV-3 > 100 µM | SN12C > 100 µM | SNB-75 > 100 µM | TK-10 > 100 µM | U-251 > 100 µM | UACC-257 > 100 µM | UACC-62 54.5 µM

CN(C1=NCCO1)c1cccc2ccccc12
inactive: CCRF-CEM > 10 µM | HCC 2998 > 10 µM | KM12 > 10 µM | M14 > 10 µM | MOLT-4 > 10 µM | NCI-H522 > 10 µM | NCI/ADR-RES > 10 µM | OVCAR-5 > 10 µM | RPMI-8226 > 10 µM | RXF 393 > 10 µM | SF-268 > 10 µM | SF-539 > 10 µM | SK-MEL-28 > 10 µM | SK-OV-3 > 10 µM | SN12C > 10 µM | SNB-75 9.29 µM | TK-10 > 10 µM | U-251 > 10 µM | UACC-62 > 10 µM

Cc1cc(=O)nc(S(=O)(=O)NC(=S)Nc2ccc(Cl)cc2)[nH]1
inactive: CCRF-CEM > 100 µM | HCC 2998 > 100 µM | KM12 > 100 µM | M14 > 100 µM | MOLT-4 10.2 µM | NCI-H522 27.1 µM | NCI/ADR-RES > 100 µM | OVCAR-5 > 100 µM | RPMI-8226 34.4 µM | RXF 393 2.74 µM | SF-268 > 100 µM | SF-539 > 100 µM | SK-MEL-28 > 100 µM | SK-OV-3 > 100 µM | SN12C > 100 µM | SNB-75 64 µM | TK-10 > 100 µM | U-251 > 100 µM | UACC-257 > 100 µM | UACC-62 > 100 µM
